Reference: patent US10105357B2, “Indication of antibiotic drugs for preparation of cancer inhibition pharmaceutical composition” (LAUNX BIOMEDICAL CO., LTD., priority 2014, dated 2018)
Where two headings read alike, the source gives them in different places.

Experiments:
cancer cell lines = assay: Cell viability analysis (WST-1) on cancer cell lines; format: cell-based, human; conditions: drug 10 μM, 72 hours, WST-1; Table 3
[1] = system: HI650 (Lung Adenocarcinoma); assay: Cell viability analysis, lung cancer HI650; format: cell-based, human; conditions: Homo sapiens, NCI-H1650, 72 h
[2] = system: A549 (Lung Adenocarcinoma); assay: Cell viability analysis, lung cancer A549; format: cell-based, human; conditions: Homo sapiens, A549, 72 h
[3] = system: AGS (Gastric Adenocarcinoma); assay: Cell viability analysis, gastric cancer AGS; format: cell-based, human; conditions: Homo sapiens, 72 h
[4] = system: MKN-45 (Gastric Adenocarcinoma); assay: Cell viability analysis, gastric cancer MKN-45; format: cell-based, human; conditions: Homo sapiens, MKN-45, 72 h
[5] = system: HepG2 (Hepatocellular Carcinoma); assay: Cell viability analysis, hepatic cancer HepG2; format: cell-based, human; conditions: Homo sapiens, HepG2, 72 h
[6] = system: Hep3B (hepatocellular carcinoma); assay: Cell viability analysis, hepatic cancer Hep3B; format: cell-based, human; conditions: Homo sapiens, Hep3B, 72 h, read-out: The results of antibiotic drug inhibiting cancer cell lines (cell viability analysis), Hep3B
[7] = system: LoVo (Colorectal Adenocarcinoma); assay: Cell viability analysis, colon cancer LoVo; format: cell-based, human; conditions: Homo sapiens, LoVo, 72 h
[8] = system: A375 (Amelanotic Melanoma); assay: Cell viability analysis, skin cancer A375; format: cell-based, human; conditions: Homo sapiens, A-375, 72 h
[9] = system: BCC (basal cell carcinoma); assay: Cell viability analysis, skin cancer BCC; format: cell-based, human; conditions: Homo sapiens, 72 h, read-out: The results of antibiotic drug inhibiting cancer cell lines (cell viability analysis), BCC
[10] = system: HeLa (Cervix Adenocarcinoma); assay: Cell viability analysis, cervical cancer HeLa; format: cell-based, human; conditions: Homo sapiens, HeLa, 72 h
[11] = system: C-33A (Cervical carcinoma); assay: Cell viability analysis, cervical cancer C-33A; format: cell-based, human; conditions: Homo sapiens, C-33-A, 72 h, read-out: The results of antibiotic drug inhibiting cancer cell lines (cell viability analysis), C-33A
[12] = system: PC3 (p53−) (Prostate Adenocarcinoma); assay: Cell viability analysis, prostate cancer PC3; format: cell-based, human; conditions: Homo sapiens, 72 h
[13] = system: TSGH-8301 (Urinary Bladder Carcinoma); assay: Cell viability analysis, bladder cancer TSGH-8301; format: cell-based, human; conditions: Homo sapiens, 72 h
T24 = assay: Cell viability analysis, bladder cancer T24; format: cell-based, human; conditions: Homo sapiens, T-24, 72 h, read-out: The results of antibiotic drug inhibiting cancer cell lines (cell viability analysis), T24
[14] = system: MCF7 (Mammary Gland, Adenocarcinoma); assay: Cell viability analysis, breast cancer MCF7; format: cell-based, human; conditions: Homo sapiens, MCF7, 72 h
[15] = system: MDA-MB-231 (Mammary Gland, Adenocarcinoma); assay: Cell viability analysis, breast cancer MDA-MB-231; format: cell-based, human; conditions: Homo sapiens, MDA-MB-231, 72 h, read-out: The results of antibiotic drug inhibiting cancer cell lines (cell viability analysis), MDA-MB231
BxPC-3 = assay: Cell viability analysis, pancreatic cancer BxPC-3; format: cell-based, human; conditions: Homo sapiens, BXPC-3, 72 h, read-out: The results of antibiotic drug inhibiting cancer cell lines (cell viability analysis), BxPC-3
NIH: OVCAR-3 = assay: Cell viability analysis, ovarian cancer NIH: OVCAR-3; format: cell-based, human; conditions: Homo sapiens, OVCAR-3, 72 h, read-out: The results of antibiotic drug inhibiting cancer cell lines (cell viability analysis), NIH-OVCAR-3
TOV-21G = assay: Cell viability analysis, ovarian cancer TOV-21G; format: cell-based, human; conditions: Homo sapiens, TOV21G, 72 h, read-out: The results of antibiotic drug inhibiting cancer cell lines (cell viability analysis), TOV-21G
[16] = system: SAS (Tongue squamous cell carcinoma); assay: Cell viability analysis, tongue cancer SAS; format: cell-based, human; conditions: Homo sapiens, 72 h, read-out: The results of antibiotic drug inhibiting cancer cell lines (cell viability analysis), SAS
U-2OS = assay: Cell viability analysis, osteosarcoma U-2OS; format: cell-based, human; conditions: Homo sapiens, U2OS, 72 h, read-out: The results of antibiotic drug inhibiting cancer cell lines (cell viability analysis), U2OS
[17] = system: 786-O (Renal adenocarcinoma); assay: Cell viability analysis, renal cancer 786-O; format: cell-based, human; conditions: Homo sapiens, 786-0, 72 h, read-out: The results of antibiotic drug inhibiting cancer cell lines (cell viability analysis), 786-O
[18] = system: HL-60 (Acute Promyelocytic Leukemia); assay: Cell viability analysis, leukemia HL-60; format: cell-based, human; conditions: Homo sapiens, HL-60, 72 h, read-out: cell viability (survival rate), HL-60, drug 10 μM, 72 hours, WST-1, OD450 nm
[19] = system: HCT116 (p53+) (Colorectal Carcinoma)
AsPC-1 = assay: Cell viability analysis, pancreatic cancer AsPC-1; format: cell-based, human; conditions: Homo sapiens, ASPC1, 72 h, read-out: The results of antibiotic drug inhibiting cancer cell lines (cell viability analysis), AsPC-1
[20] = read-out: The results of antibiotic drug inhibiting cancer cell lines (cell viability analysis), H1650, H1650, repeated experiment
[21] = read-out: cell viability (survival rate), H1650, drug 10 μM, 72 hours, WST-1, OD450 nm
[22] = read-out: The results of antibiotic drug inhibiting cancer cell lines (cell viability analysis), A549, A549, repeated experiment
[23] = read-out: cell viability (survival rate), A549, drug 10 μM, 72 hours, WST-1, OD450 nm
[24] = read-out: The results of antibiotic drug inhibiting cancer cell lines (cell viability analysis), AGS, repeated experiment
[25] = read-out: cell viability (survival rate), AGS, drug 10 μM, 72 hours, WST-1, OD450 nm
[26] = read-out: The results of antibiotic drug inhibiting cancer cell lines (cell viability analysis), MKN-45, MKN-45, repeated experiment
[27] = read-out: cell viability (survival rate), MKN-45, drug 10 μM, 72 hours, WST-1, OD450 nm
[28] = read-out: The results of antibiotic drug inhibiting cancer cell lines (cell viability analysis), HepG2, HepG2, repeated experiment
[29] = read-out: cell viability (survival rate), HepG2, drug 10 μM, 72 hours, WST-1, OD450 nm
[30] = read-out: The results of antibiotic drug inhibiting cancer cell lines (cell viability analysis), LoVo, repeated experiment
[31] = read-out: cell viability (survival rate), LoVo, drug 10 μM, 72 hours, WST-1, OD450 nm
[32] = read-out: The results of antibiotic drug inhibiting cancer cell lines (cell viability analysis), A375, A375, repeated experiment
[33] = read-out: cell viability (survival rate), A375, drug 10 μM, 72 hours, WST-1, OD450 nm
[34] = read-out: The results of antibiotic drug inhibiting cancer cell lines (cell viability analysis), HeLa, repeated experiment
[35] = read-out: cell viability (survival rate), HeLa, drug 10 μM, 72 hours, WST-1, OD450 nm
[36] = read-out: The results of antibiotic drug inhibiting cancer cell lines (cell viability analysis), PC-3, PC-3, repeated experiment
[37] = read-out: cell viability (survival rate), PC3, drug 10 μM, 72 hours, WST-1, OD450 nm
[38] = read-out: The results of antibiotic drug inhibiting cancer cell lines (cell viability analysis), TSGH-8301, TSGH-8301, repeated experiment
[39] = read-out: cell viability (survival rate), TSGH, drug 10 μM, 72 hours, WST-1, OD450 nm
[40] = read-out: The results of antibiotic drug inhibiting cancer cell lines (cell viability analysis), MCF-7, MCF-7, repeated experiment
[41] = read-out: cell viability (survival rate), MCF7, drug 10 μM, 72 hours, WST-1, OD450 nm

SMILES	viability at 10 µM [1, 20] [%]	viability at 10 µM [1, 21] [%]	viability at 10 µM [2, 22] [%]	viability at 10 µM [2, 23] [%]	viability at 10 µM [3, 24] [%]	viability at 10 µM [3, 25] [%]	viability at 10 µM [4, 26] [%]	viability at 10 µM [4, 27] [%]	viability at 10 µM [5, 28] [%]	viability at 10 µM [5, 29] [%]	viability at 10 µM [6] [%]	viability at 10 µM [7, 30] [%]	viability at 10 µM [7, 31] [%]	viability at 10 µM [8, 32] [%]	viability at 10 µM [8, 33] [%]	viability at 10 µM [10, 34] [%]	viability at 10 µM [10, 35] [%]	viability at 10 µM [11] [%]	viability at 10 µM [12, 36] [%]	viability at 10 µM [12, 37] [%]	other results
CC1(C)S[C@@H]2[C@H](NC(=O)Cc3ccccc3)C(=O)N2[C@H]1C(=O)O [Benzylpenicillin sodium]	121	57.1	97.2	36.4	110	54.8	124	43.1	108	86.4	113	78.3	62.8	113	51.7	107	57.1	110	106	36.1	inhibition effect on different cancer cell lines (cancer cell lines): significant inhibition effect; viability at 10 µM [9]: 97.7%; viability at 10 µM [13, 38]: 131%; viability at 10 µM [13, 39]: 39.6%; viability at 10 µM (T24): 108%; viability at 10 µM [14, 40]: 86.9%; viability at 10 µM [14, 41]: 31.3%; viability at 10 µM [15]: 94.7%; viability at 10 µM (BxPC-3): 95.3%; viability at 10 µM (NIH: OVCAR-3): 110%; viability at 10 µM (TOV-21G): 112%; viability at 10 µM [16]: 67%; viability at 10 µM (U-2OS): 71.5%; viability at 10 µM [17]: 93.2%; viability at 10 µM [18]: 86.7%; viability [19]: 94%
Cc1cc2c(s1)Nc1ccccc1N=C2N1CCN(C)CC1 [Olanzapine (Zyprexa), Olanzapine]	107	109	106	88	122	84.2	125	80.1	114	93.3	132	81.4	88.5	98.3	91.9	121	106	98.2	113	92.2	viability at 10 µM [13, 38]: 152%; viability at 10 µM [13, 39]: 58.7%; viability at 10 µM (T24): 110%; viability at 10 µM [14, 40]: 86.8%; viability at 10 µM [14, 41]: 125%; viability at 10 µM [15]: 111%; viability at 10 µM (BxPC-3): 65.9%; viability at 10 µM (AsPC-1): 84.2%; viability at 10 µM (NIH: OVCAR-3): 96.8%; viability at 10 µM (TOV-21G): 105%; viability at 10 µM [16]: 59.3%; viability at 10 µM (U-2OS): 66%; viability at 10 µM [17]: 91.8%; viability at 10 µM [18]: 118%; viability [19]: 124%
C=C1[C@H](CO)[C@@H](O)C[C@@H]1n1cnc2c(=O)[nH]c(N)nc21 [Entecavir hydrate]	84.1	80.8	104	57.4	88.7	46.4	92.5	59.7	88.9	98.8	90.8	96.7	91.6	89	98.6	76.9	99.4	96.7	118	81.2	inhibition effect on different cancer cell lines (cancer cell lines): significant inhibition effect; viability at 10 µM [9]: 69.5%; viability at 10 µM [13, 38]: 103%; viability at 10 µM [13, 39]: 53%; viability at 10 µM (T24): 96.4%; viability at 10 µM [14, 40]: 92.9%; viability at 10 µM [14, 41]: 58.6%; viability at 10 µM [15]: 98.9%; viability at 10 µM (BxPC-3): 97.2%; viability at 10 µM (AsPC-1): 98.4%; viability at 10 µM (NIH: OVCAR-3): 109%; viability at 10 µM (TOV-21G): 85.5%; viability at 10 µM (U-2OS): 85.3%; viability at 10 µM [17]: 92.7%; viability at 10 µM [18]: 74.1%; viability [19]: 99.9%
Cc1noc(NS(=O)(=O)c2ccc(N)cc2)c1C [Sulfisoxazole]	75.9	73.9	105	39.4	108	88.7	105	48.4	122	108	110	112	68.8	107	65.5	120	78.9	116	111	36.1	inhibition effect on different cancer cell lines (cancer cell lines): significant inhibition effect; viability at 10 µM [9]: 102%; viability at 10 µM [13, 38]: 105%; viability at 10 µM [13, 39]: 93%; viability at 10 µM (T24): 90.7%; viability at 10 µM [14, 40]: 106%; viability at 10 µM [14, 41]: 46.1%; viability at 10 µM [15]: 104%; viability at 10 µM (BxPC-3): 67.1%; viability at 10 µM (AsPC-1): 80.1%; viability at 10 µM (NIH: OVCAR-3): 108%; viability at 10 µM (TOV-21G): 84.5%; viability at 10 µM (U-2OS): 88.6%; viability at 10 µM [17]: 93.3%; viability at 10 µM [18]: 95.2%; viability [19]: 97.9%
